{"source": "patent US20260216135A1", "about": "“ANTIVIRAL PHARMACEUTICAL COMPOSITION AND PREPARATION METHOD THEREFOR” (priority 2023, published 2026)", "key": {"SARS-CoV-2 Delta strain": {"test_system": "SARS-CoV-2 Delta strain", "settings": "for Viral load, brain tissue, Day 4 / Viral load, lung tissue, Day 2: intragastric BID, mean ± SD"}, "[1]": {"test_system": "SARS-CoV-2 Omicron strain (B.1.1.529)", "assay": "microbe, parasite or virus in culture", "settings": "Severe acute respiratory syndrome coronavirus 2, Vero C1008, read-out: IC50 (μM), Vero E6 Omicron strain (B.1.1.529)"}, "[2]": {"test_system": "47 safety-related targets", "settings": "read-out: EC50 for 47 safety-related targets (inhibition or activation)"}, "[3]": {"settings": "200 mg/kg + ritonavir 50 mg/kg, listed as compound of formula (I)"}}, "note": "Where two headings read alike, the source gives them in different places."}
{"molecule": "CC(C)(C)[C@H](NC(=O)C(F)(F)F)C(=O)N1CC2(C[C@H]1C(=O)N[C@H](C#N)C[C@@H]1CCNC1=O)SCCS2", "note": "[Compound of formula (I)]", "values": [{"measurement": "Viral load, brain tissue, Day 4", "setting": "SARS-CoV-2 Delta strain; 50 mg/kg + ritonavir 50 mg/kg", "value": "2.88 ± 1.26", "unit": "log10 copies/mg"}, {"measurement": "Viral load, lung tissue, Day 2", "setting": "SARS-CoV-2 Delta strain; 50 mg/kg + ritonavir 50 mg/kg", "value": "7.66 ± 0.27", "unit": "log10 copies/g"}, {"measurement": "Viral load, lung tissue, Day 2", "setting": "SARS-CoV-2 Delta strain; 50 mg/kg + ritonavir 50 mg/kg, listed as compound of formula (I)", "value": 7.66, "unit": "log10 copies/g"}, {"measurement": "Viral load, brain tissue, Day 4", "setting": "SARS-CoV-2 Delta strain; 200 mg/kg + ritonavir 50 mg/kg", "value": "0.99 ± 0.42", "unit": "log10 copies/mg"}, {"measurement": "Viral load, lung tissue, Day 2", "setting": "SARS-CoV-2 Delta strain; 200 mg/kg + ritonavir 50 mg/kg", "value": "6.79 ± 0.30", "unit": "log10 copies/g"}, {"measurement": "Viral load, brain tissue, Day 4", "setting": "SARS-CoV-2 Delta strain; [3]", "value": "comparable to that of the uninfected normal group"}, {"measurement": "Viral load, lung tissue, Day 2", "setting": "SARS-CoV-2 Delta strain; [3]", "value": "6.79±0.30", "unit": "log10 copies/g"}, {"measurement": "Histopathological analysis of the lungs", "setting": "SARS-CoV-2 Delta strain; 200 mg/kg, compared with model group", "value": "significantly ameliorated lung damage"}, {"measurement": "Body weight of mice", "setting": "SARS-CoV-2 Delta strain; mouse, in vivo", "value": "not significantly reduced"}, {"measurement": "Reduction of viral copy number in the lungs compared with the model group", "setting": "SARS-CoV-2 Delta strain; mouse, in vivo", "value": 2.4, "unit": "log 10 copies/g"}, {"measurement": "Reduction of viral titer in the lungs compared to the model group", "setting": "SARS-CoV-2 Delta strain; mouse, in vivo", "value": "more than 3 log 10 PFU/g"}, {"measurement": "Virus titer in the brains (plaque assay)", "setting": "SARS-CoV-2 Delta strain; mouse, in vivo", "value": "no virus titer was detected"}, {"measurement": "IC50", "setting": "[1]", "value": 0.12, "unit": "µM"}, {"measurement": "EC50", "setting": "[2]", "value": "> 100", "unit": "µM"}]}
